According to US10980813B2, “Antifungal composition” (SEED RESEARCH INSTITUTE CO., LTD., priority 2017, dated 2021):
In brackets after ≈: the same amount, converted by molar mass.

Assays:
Assay in all cases: Antifungal activity, MIC by disc (diffusion) method
A. fumigatus = format: cell-based; conditions: Aspergillus fumigatus, YMG agar, 24 hr at 28° C., read-out: MIC (minimum inhibitory concentration) A. fumigatus
Method: (§1) Measurement Method of Antifungal Activity in Various Compounds
(§2) The minimum inhibitory concentration (MIC) was measured by a disc method (diffusion method). The disc method is one kind of the diffusion method, and is a method in which filter paper (disc) impregnated with an antifungal substance at a given concentration is placed on an agar medium (test plate) coated with a test bacterium and cultivated. The disc absorbs water in the medium, diffuses the antifungal substance and forms a given concentration gradient. As a result, the test bacterium forms a growth inhibition zone (circle) in the periphery of the disc, and the level of sensitivity to the antifungal substance is determined from the diameter of the inhibition circle.
(§3) Using the aforementioned method, MIC of various compounds was measured.
(§4) i: In a 100 mL flask, 20 mL of YMG or Mueller Hinton medium is produced.
(§5) ii: A loopful of the test bacterium is dissolved in the medium.
(§6) iii: The medium is cultured at 200 rpm for 24 hr in a rotary shaker set to 28° C.
(§7) i: In a 300 mL flask, 100 mL of YMG or Mueller Hinton agar medium (low melting point agar) is produced.
(§8) ii: After cooling to 37° C.-40° C., preculture medium (1 mL) is added and the mixture is agitated.
(§9) iii: The mixture is dispensed to a square petri dish (size: 100*150*17 mm) by 20 mL each.
(§10) iv: The dish is stood at room temperature until the agar is solidified.
(§11) i: The compound is diluted in ½ dilution series in 10 stages (timely changed according to compound), 50 μL of solution/pulp at each dilution stage is produced, the organic solvent is dried at room temperature and placed on a test plate.
(§12) ii: After culturing T. rubrum for 48 hr and other test bacteria for 24 hr at 28° C. in an incubator, the size of the inhibition circle was measured.
(§13) The medium composition for culture which was used for the aforementioned preculture is shown below.
(§14) [Medium Compositions for Preculture and Test Plate]
(§15) <<YMG Medium>>: For Fungus
(§16) Agar, powder 0.8% * added only when producing test plate

Saccharomyces = format: cell-based; conditions: YMG agar, 24 hr at 28° C., read-out: MIC (minimum inhibitory concentration) Saccharomyces
Method: as §1, §2, §3, §4, §5, §6, §7, §8, §9, §10, §11, §12, §13, §14, §15, §16

T. mentagrophytes = format: cell-based; conditions: Trichophyton mentagrophytes, YMG agar, 24 hr at 28° C., read-out: MIC (minimum inhibitory concentration) T. mentagrophytes
Method: as §1, §2, §3, §4, §5, §6, §7, §8, §9, §10, §11, §12, §13, §14, §15, §16

T. rubrum = format: cell-based; conditions: Trichophyton rubrum, YMG agar, 48 hr at 28° C., read-out: MIC (minimum inhibitory concentration) T. rubrum
Method: as §1, §2, §3, §4, §5, §6, §7, §8, §9, §10, §11, §12, §13, §14, §15, §16

C. parapsilosis = format: cell-based, Candida parapsilosis; conditions: Lodderomyces parapsilosis, YMG agar, 24 hr at 28° C., read-out: MIC (minimum inhibitory concentration) C. parapsilosis
Method: as §1, §2, §3, §4, §5, §6, §7, §8, §9, §10, §11, §12, §13, §14, §15, §16

MIC (A. fumigatus) [µg/mL]	MIC (Saccharomyces) [µg/mL]	MIC (T. mentagrophytes) [µg/mL]	MIC (T. rubrum) [µg/mL]	MIC (C. parapsilosis) [µg/mL]	SMILES
4 (≈ 19.9 µM)	4 (≈ 19.9 µM)	1 (≈ 4.97 µM)	1 (≈ 4.97 µM)	4 (≈ 19.9 µM)	O=S1(=O)N=Cc2cc(F)ccc2O1 [I-1a]
8 (≈ 31.2 µM)	8 (≈ 31.2 µM)	2 (≈ 7.79 µM)	2 (≈ 7.79 µM)	8 (≈ 31.2 µM)	O=S1(=O)N=CC(CCc2ccc(Cl)cc2)=N1 [I-4d]
8 (≈ 37.5 µM)	8 (≈ 37.5 µM)	2 (≈ 9.38 µM)	2 (≈ 9.38 µM)	8 (≈ 37.5 µM)	O=S1(=O)OCC2(c3ccccc3)ON21 (stereo not drawn) [II-3c]
4 (≈ 14.9 µM)	4 (≈ 14.9 µM)	1 (≈ 3.72 µM)	1 (≈ 3.72 µM)	4 (≈ 14.9 µM)	O=S1(=O)N=CC2=COc3ccc(Cl)cc3C2=N1 [I-6c]
8 (≈ 25.9 µM)	8 (≈ 25.9 µM)	2 (≈ 6.48 µM)	2 (≈ 6.48 µM)	8 (≈ 25.9 µM)	O=S1(=O)Nc2ccc(Cl)cc2C2(c3ccccc3)ON21 (stereo not drawn) [II-1l]
4 (≈ 15.2 µM)	4 (≈ 15.2 µM)	1 (≈ 3.81 µM)	1 (≈ 3.81 µM)	4 (≈ 15.2 µM)	O=[N+]([O-])c1cc(Cl)cc2c1OS(=O)(=O)N=C2 [I-1i]
8 (≈ 34.5 µM)	8 (≈ 34.5 µM)	2 (≈ 8.63 µM)	2 (≈ 8.63 µM)	8 (≈ 34.5 µM)	O=S1(=O)N=C(c2ccc(Cl)cc2)CO1 [I-3d]
8 (≈ 37.5 µM)	8 (≈ 37.5 µM)	2 (≈ 9.38 µM)	2 (≈ 9.38 µM)	8 (≈ 37.5 µM)	CC12ON1S(=O)(=O)Oc1ccccc12 (stereo not drawn) [II-1j]
4 (≈ 20.7 µM)	4 (≈ 20.7 µM)	2 (≈ 10.4 µM)	2 (≈ 10.4 µM)	4 (≈ 20.7 µM)	CCC1OS(=O)(=O)N2OC12CC (stereo not drawn) [II-3b]
8 (≈ 24.7 µM)	8 (≈ 24.7 µM)	2 (≈ 6.16 µM)	2 (≈ 6.16 µM)	8 (≈ 24.7 µM)	CCCCCCCCN1CC2(c3ccccc3)ON2S1(=O)=O (stereo not drawn) [II-3e]
4 (≈ 17.1 µM)	4 (≈ 17.1 µM)	1 (≈ 4.27 µM)	1 (≈ 4.27 µM)	4 (≈ 17.1 µM)	O=S1(=O)N=CC2=COc3ccccc3C2=N1 [I-6a]
4 (≈ 14.1 µM)	4 (≈ 14.1 µM)	1 (≈ 3.51 µM)	1 (≈ 3.51 µM)	4 (≈ 14.1 µM)	O=S1(=O)N=C2C(=COc3ccc(Cl)cc32)C2ON21 (stereo not drawn) [II-6c]
